Data as given in patent US20260250322A1, “NEW PEPTIDES AS SELECTIVE IL-23 RECEPTOR INHIBITORS” (SANOFI, priority 2023, published 2026).
Numbered stars: 1 amine (or outer) side, 2 acyl side, 3 side chain; on linkers, the order of the positions; unused ones are H or OH. Bridge positions count the residues as written; N and C are the ends. Square brackets hold non-standard residues; d marks the D form. Peptide text beside a SMILES is read from it. Phe(4-OMe) = Yme, 4-methoxy-L-phenylalanine (O-methyl-tyrosine), COc1ccc(C[C@H](N[*:1])C(=O)[*:2])cc1; Tyr(Me) = Yme = 4-methoxy-L-phenylalanine (O-methyl-tyrosine), COc1ccc(C[C@H](N[*:1])C(=O)[*:2])cc1; 1Nal = N[C@@H](Cc1cccc2ccccc12)C(=O)O; 2Nal = N[C@@H](Cc1ccc2ccccc2c1)C(=O)O; Agb = N=C(N)NCC[C@H](N)C(=O)O; dOrn = NCCC[C@@H](N)C(=O)O; Orn = NCCC[C@H](N)C(=O)O; Aib = CC(C)(N)C(=O)O; Ahx = NCCCCCC(=O)O

T1: human IL-23R (Homo sapiens, UniProt Q5VWK5)
T1 sequence (Q5VWK5 24-355 limits assumed): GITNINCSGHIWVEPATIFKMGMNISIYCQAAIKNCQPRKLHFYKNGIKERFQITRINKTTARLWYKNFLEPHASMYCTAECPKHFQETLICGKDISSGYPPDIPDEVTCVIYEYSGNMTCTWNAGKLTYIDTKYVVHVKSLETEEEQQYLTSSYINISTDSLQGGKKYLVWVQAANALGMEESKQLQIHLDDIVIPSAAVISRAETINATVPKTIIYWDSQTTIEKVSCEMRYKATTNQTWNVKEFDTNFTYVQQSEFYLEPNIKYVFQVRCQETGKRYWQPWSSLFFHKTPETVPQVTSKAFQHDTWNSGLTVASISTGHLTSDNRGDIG

T2: recombinant human IL-23R-Fc chimera (human, UniProt Q5VWK5 24-353, limits assumed)
T2 construct: Recombinant reagent; also called interleukin-23 receptor; not shown: detected with goat anti-hu-IgG1-HRP antibody
T2 sequence (looked up): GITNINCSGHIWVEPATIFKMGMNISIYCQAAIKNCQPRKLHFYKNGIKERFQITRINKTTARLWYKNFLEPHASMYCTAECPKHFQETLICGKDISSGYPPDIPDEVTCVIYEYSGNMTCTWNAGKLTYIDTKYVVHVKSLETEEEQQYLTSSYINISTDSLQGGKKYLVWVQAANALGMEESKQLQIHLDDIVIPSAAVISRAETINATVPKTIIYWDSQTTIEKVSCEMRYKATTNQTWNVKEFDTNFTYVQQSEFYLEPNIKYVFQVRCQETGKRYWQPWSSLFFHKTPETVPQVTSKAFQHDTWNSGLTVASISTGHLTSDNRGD

B1: peptide compound SEQ ID NO: 39 (peptide)
peptide: Ac-[dK]NTWQ[Agb][Phe(4-OMe)][2Nal][Aib]DNN-NH2
modifications: lactam 1-10
SMILES: COc1ccc(C[C@@H]2NC(=O)[C@H](CCNC(=N)N)NC(=O)[C@H](CCC(N)=O)NC(=O)[C@H](Cc3c[nH]c4ccccc34)NC(=O)[C@H]([C@@H](C)O)NC(=O)[C@H](CC(N)=O)NC(=O)[C@H](NC(C)=O)CCCCNC(=O)C[C@@H](C(=O)N[C@@H](CC(N)=O)C(=O)N[C@@H](CC(N)=O)C(N)=O)NC(=O)C(C)(C)NC(=O)[C@H](Cc3ccc4ccccc4c3)NC2=O)cc1
B2: peptide compound SEQ ID NO: 27 (peptide)
peptide: Ac-[dOrn]NTWQR[Tyr(Me)][2Nal][Aib]DNN-NH2
modifications: lactam 1-10
SMILES: COc1ccc(C[C@@H]2NC(=O)[C@H](CCCNC(=N)N)NC(=O)[C@H](CCC(N)=O)NC(=O)[C@H](Cc3c[nH]c4ccccc34)NC(=O)[C@H]([C@@H](C)O)NC(=O)[C@H](CC(N)=O)NC(=O)[C@H](NC(C)=O)CCCNC(=O)C[C@@H](C(=O)N[C@@H](CC(N)=O)C(=O)N[C@@H](CC(N)=O)C(N)=O)NC(=O)C(C)(C)NC(=O)[C@H](Cc3ccc4ccccc4c3)NC2=O)cc1
B3: peptide compound SEQ ID NO: 40 (peptide)
peptide: [Ahx]NTWQ[Agb][Phe(4-OMe)][2Nal][Aib]ENN-NH2
modifications: lactam N-10
SMILES: COc1ccc(C[C@@H]2NC(=O)[C@H](CCNC(=N)N)NC(=O)[C@H](CCC(N)=O)NC(=O)[C@H](Cc3c[nH]c4ccccc34)NC(=O)[C@H]([C@@H](C)O)NC(=O)[C@H](CC(N)=O)NC(=O)CCCCCNC(=O)CC[C@@H](C(=O)N[C@@H](CC(N)=O)C(=O)N[C@@H](CC(N)=O)C(N)=O)NC(=O)C(C)(C)NC(=O)[C@H](Cc3ccc4ccccc4c3)NC2=O)cc1

Assays:
[1] = Chemical stability (relative purity loss) of peptide compounds in buffer formulations; assay type: physicochemical
Description: Purity of a compound batch was determined through UHPLC/MS prior to chemical stability measurement using Method A.
For stability assessment, the target concentration was 300 μM pure compound. Therefore, solutions from solid samples were prepared in the following buffer systems with a concentration of ~300 µM compound based on the previously determined % purity. The solid samples were obtained by drying down aliquots of a freshly prepared acetonitrile stock solution using a THERMO SPEEDVAC vacuum centrifuge. The dry down time was 3 hours.
The following buffer systems were applied: • Solubility buffer system A) 100 mM phosphate buffer pH 7.4. • Solubility buffer system B) 100 mM phosphate buffer pH 6.5. • Solubility buffer system C) 100 mM HCl pH 1.2.
Prepared solutions were filtered through […] pore size and filled into sterilized glass containers under laminar flow conditions.
[…] After this time course, the samples were centrifuged for 15 min at 2500 RCF. Then 1.5 μl of the undiluted supernatant were analysed with UHPLC-UV.
The chemical stability was rated through the relative loss of purity calculated by the equation:
[(purity after 0 hours at 37° C.)(purity after 24 hours at 37° C.)]/(purity after 0 hours at 37° C.)]*100%.
The purity is calculated as [(peak area peptide)/(total peak area)]*100%.
Buffer composition: 100 mM HCl pH 1.2, 100 mM phosphate buffer pH 6.5, 100 mM phosphate buffer pH 7.4

human IL-23R = target: T1, human IL-23R; test: Human ELISA IL-23/IL-23R binding inhibition; settings: human IL-23 coated, recombinant human IL-23R-Fc chimera
Outline: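 Plates coated with human IL-23 at 1 μg/ml overnight at 4° C; serially diluted peptides added with recombinant human IL-23R-Fc at 0.1 μg/ml final, 60 min at RT. Bound receptor detected with anti-human IgG1-HRP and a fluorogenic peroxidase substrate.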

[2] = test system: IL-23 induced STAT3 signaling; test: Inhibition of IL-23 induced STAT3 signaling in HEK-Blue IL-23 cells (SEAP reporter); assay type: cell-based; settings: human IL-23 0.25 ng/ml, read-out: Inhibition of IL-23 induced pSTAT3 (IC50 nM)
Outline: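 HEK-Blue IL-23 cells (10,000/well) preincubated 60 min at 37 °C with serially diluted compound, then stimulated overnight with human IL-23 (0.25 ng/ml final). STAT3-driven SEAP in supernatant read with QUANTI-Blue after 45 min at room temperature, OD 620-655 nm; dose-response fitted.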

[3] = target: T2, recombinant human IL-23R-Fc chimera; test: competition ELISA: coated human IL-23, IL-23R-Fc 0.1 ug/ml, peptide titrated
Description: Antagonism of peptide compounds for human interleukin-23 receptor inhibitors, was determined by an ELISA assay.
A 384-well plate was coated with 50 μl/well of human IL-23 at a final concentration of 1 μg/ml and incubated overnight at 4° C. The wells were washed 3 times with 80 μl wash buffer and blocked with 80 μl blocking buffer for 60 minutes at room temperature and washed again. 20 μl of serially diluted test peptides was added to each well and subsequently 20 μl of recombinant human IL-23R-Fc chimera at final concentration of 0.1 μg/ml. The plate was incubated for 60 minutes at room temperature. After the wells were washed, bound IL-23R-Fc was detected with goat anti-hu-lgG1-HRP antibody. Signals were visualized with QuantaBlu Fluorogenic Peroxidase Substrate.

[4] = pH 6.5 (100 mM phosphate buffer)
[5] = pH 7.4 (100 mM phosphate buffer)

Molecule | Conc. [mg/ml] 0 h ([1]; pH 1.2 (100 mM HCl)) [mg/mL] | Conc. [mg/ml] 24 h 37° C. ([1]; pH 1.2 (100 mM HCl)) [mg/mL] | Mass Balance [%] 24 h 37° C. ([1]; pH 1.2 (100 mM HCl)) [%] | Relative Purity Loss [%] 24 h 37° C. ([1]; pH 1.2 (100 mM HCl)) [%] | Conc. [mg/ml] 0 h [1, 4] [mg/mL] | Conc. [mg/ml] 24 h 37° C. [1, 4] [mg/mL] | Mass Balance [%] 24 h 37° C. [1, 4] [%] | Relative Purity Loss [%] 24 h 37° C. [1, 4] [%] | Conc. [mg/ml] 0 h [1, 5] [mg/mL] | Conc. [mg/ml] 24 h 37° C. [1, 5] [mg/mL] | Mass Balance [%] 24 h 37° C. [1, 5] [%] | Relative Purity Loss [%] 24 h 37° C. [1, 5] [%] | IC50 (human IL-23R) [nM] | IC50 [2] [nM] | IC50 [3] [nM]
COc1ccc(C[C@@H]2NC(=O)[C@H](CCCNC(=N)N)NC(=O)[C@H](CCC(N)=O)NC(=O)[C@H](Cc3c[nH]c4ccccc34)NC(=O)[C@H]([C@@H](C)O)NC(=O)[C@H](CC(N)=O)NC(=O)[C@H](NC(C)=O)CCCCNC(=O)C[C@@H](C(=O)N[C@@H](CC(N)=O)C(=O)N[C@@H](CC(N)=O)C(N)=O)NC(=O)C(C)(C)NC(=O)[C@H](Cc3ccc4ccccc4c3)NC2=O)cc1 [compound 3] (Ac-[dK]NTWQRY(Me)[2Nal][Aib]DNN-NH2; lactam 1-10) | 1.5 | 1.1 | −3.4 | 23.2 | 1.2 | 1.1 | −3.6 | 1.1 | 1.4 | 1.3 | −3.1 | 3.6 | 1.55 | 430 | 
COc1ccc(C[C@@H]2NC(=O)[C@H](CCCNC(=N)N)NC(=O)[C@H](CCC(N)=O)NC(=O)[C@H](Cc3c[nH]c4ccccc34)NC(=O)[C@H]([C@@H](C)O)NC(=O)[C@H](CC(N)=O)NC(=O)[C@@H](NC(C)=O)CC(=O)NCCC[C@@H](C(=O)N[C@@H](CC(N)=O)C(=O)N[C@@H](CC(N)=O)C(N)=O)NC(=O)C(C)(C)NC(=O)[C@H](Cc3ccc4ccccc4c3)NC2=O)cc1 [compound 6] (Ac-DNTWQRY(Me)[2Nal][Aib][Orn]NN-NH2; lactam 1-10) | 1.6 | 1.1 | −3.8 | 27.3 | 1.4 | 1.3 | −1.4 | 0.6 | 1.4 | 1.3 | −4.8 | 1.4 | 1.96 | 366 | 
COc1ccc(C[C@@H]2NC(=O)[C@H](CC(C)C)NC(=O)[C@H](CCC(N)=O)NC(=O)[C@H](Cc3c[nH]c4ccccc34)NC(=O)[C@H]([C@@H](C)O)NC(=O)[C@H](CC(N)=O)NC(=O)[C@H](NC(C)=O)CCCCNC(=O)C[C@@H](C(=O)N[C@@H](CC(N)=O)C(=O)N[C@@H](CC(N)=O)C(N)=O)NC(=O)C(C)(C)NC(=O)[C@H](Cc3cccc4ccccc34)NC2=O)cc1 [compound 7] (Ac-[dK]NTWQLY(Me)[1Nal][Aib]DNN-NH2; lactam 1-10) | 1.1 | 0.7 | −9.6 | 26.5 | 1.5 | 1.5 | −3.9 | 0.3 | 1.1 | 1.0 | −2.3 | 4.7 | 2.47 | 850 | 
COc1ccc(C[C@@H]2NC(=O)[C@H](C)NC(=O)[C@H](CCC(N)=O)NC(=O)[C@H](Cc3c[nH]c4ccccc34)NC(=O)[C@H]([C@@H](C)O)NC(=O)[C@H](CC(N)=O)NC(=O)[C@H](NC(C)=O)CCCCNC(=O)C[C@@H](C(=O)N[C@@H](CC(N)=O)C(=O)N[C@@H](CC(N)=O)C(N)=O)NC(=O)C(C)(C)NC(=O)[C@H](Cc3cccc4ccccc34)NC2=O)cc1 [compound 8] (Ac-[dK]NTWQAY(Me)[1Nal][Aib]DNN-NH2; lactam 1-10) | 0.2 | 0.2 | −2.5 | 26.2 | 0.2 | 0.2 | 4.1 | −1.4 | 0.2 | 0.2 | 4.6 | 2.0 | 2.74 | 943 | 
B1 |  |  |  |  |  |  |  |  |  |  |  |  |  |  | 1.46
B2 |  |  |  |  |  |  |  |  |  |  |  |  |  |  | 19.7
B3 |  |  |  |  |  |  |  |  |  |  |  |  |  |  | 3.11
